Results from US10568852B2, “Combination compositions and their use in methods for treating obesity and obesity-related disorders” (Helmholtz Zentrum Munchen—Deutsches Forschungszentrum fur …, priority 2015, dated 2020).

Assays:
DIO male mice [1] = details: 14 days, DMPP 1 mg/kg, 5 mg/kg or 10 mg/ml, daily subcutaneous injections, vs vehicle
Description: (§1) Six- to eight-week-old male C57Bl/6 mice were given ad libitum access to a high-fat, high-sugar diet comprising 58% kcal fat (D12331; Research Diets, New Brunswick, N.J.). The mice had free access to water and were maintained at 23±1° C., constant humidity and on a 12-h light-dark cycle. Mice were maintained under these conditions for a minimum of 20 weeks before study initiation. At study start, mice were randomized into groups matched for body weight and body composition. Compounds were administered subcutaneously 1 h before the onset of the dark phase. Co-administration of compounds was administered by single formulated injections. Assessment of energy intake, energy expenditure and home-cage activity were performed using an indirect calorimetry system (TSE Phenotmaster, TSE Systems, Bad Homburg, Germany).
To assess the effect of DMPP alone on the body weight and food intake, diet-induced obese (DIO) male mice were treated 14 days with vehicle (control) or DMPP (1 mg/kg, 5 mg/kg or 10 mg/ml). Compounds were administered by daily subcutaneous injections.

DIO male mice [2] = assay: Glucose tolerance (intraperitoneal glucose challenge) in DIO mice; assay type: in vivo; details: 7-days treatment, daily subcutaneous injections, vs vehicle
Description: We also investigated the effect of DMPP alone on glucose tolerance and area under the curve (AUC). Glucose tolerance was assessed following 7-days treatment of DIO male mice with vehicle (control) or DMPP (1 mg/kg, 5 mg/kg or 10 mg/ml). Compounds were administered by daily subcutaneous injections.
Glucose tolerance was assessed following 7-days treatment of DIO male mice with vehicle (control) or icilin (6 mg/kg). […] Compounds were administered by daily subcutaneous injections.
Glucose tolerance was assessed following 7-days treatment of DIO male mice with vehicle (control), DMPP alone (10 mg/kg), icilin alone (5 mg/kg) or DMPP (10 mg/ml)+icilin (5 mg/kg). Compounds were administered by daily subcutaneous injections.

DIO male mice [3] = assay: Body weight of diet-induced obese mice under daily subcutaneous treatment; assay type: in vivo; details: daily subcutaneous injections, vs vehicle
Description: as §1
To assess the effect of icilin alone on the body weight and food intake, DIO male mice were treated 16 days with vehicle (control) or icilin (0.6 mg/kg or 6 mg/kg). […] Compounds were administered by daily subcutaneous injections.
To assess the effect of the combination therapy on the body weight, DIO male mice were treated 4 days with vehicle (control), DMPP alone (10 mg/kg), icilin alone (5 mg/kg) or DMPP (10 mg/ml)+icilin (5 mg/kg). Compounds were administered by daily subcutaneous injections. […]

DIO male mice [4] = assay: Fasting glucose in DIO mice; assay type: in vivo; details: 23-days treatment, icilin 6 mg/kg, daily subcutaneous injections, vs vehicle
Description: Glucose tolerance was analyzed in 6 h fasted mice, following an intraperitoneal challenge with 1.5 g glucose per kg body weight. Glucose levels were measured in blood sampled from the tail veins before (0 min) and at 15, 30, 60 and 120 min post injection. To measure glucose-stimulated insulin secretion blood was collected from tail veins into EDTA-coated microvette tubes (Sarstedt) at time points 0, 15 and 60 min post glucose injection. Insulin sensitivity was assessed in 6 h fasted mice following an intraperitoneal injection of 0.7 U of insulin (Actrapid) per kg body weight. Blood glucose levels were measured before (0 min) and at 15, 30, 60 and 120 minutes after the insulin injection. Insulin was measured with commercially available kit (ALPCO Diagnostics, Salem, N.H.) per the manufacturer's instructions.
Glucose tolerance was assessed following 7-days treatment of DIO male mice with vehicle (control) or icilin (6 mg/kg). The results are shown in FIG. 3(D) (control: white; icilin: black). Fasting glucose was assessed following 23-days treatment of DIO male mice with vehicle (control) or icilin (6 mg/kg). Compounds were administered by daily subcutaneous injections. The results are shown in FIG. 3(E) (control: white bar; icilin: black bar).

DIO male mice [5] = assay: Energy expenditure (indirect calorimetry) in DIO mice; assay type: in vivo; details: 5-days treatment, icilin 6 mg/kg, daily subcutaneous injections, vs vehicle
Description: To assess the effect of icilin alone on the body weight and food intake, DIO male mice were treated 16 days with vehicle (control) or icilin (0.6 mg/kg or 6 mg/kg). The results of these treatments are shown in FIGS. 3(A) and 3(B) (control: white circle; icilin: 0.6 mg/kg (star) or 6 mg/kg (black circle)). The effect on energy expenditure was investigated by a 5-days treatment of DIO male mice with vehicle (control) or icilin (6 mg/kg). Compounds were administered by daily subcutaneous injections. The results of these treatments are shown in FIG. 3(C) (control: white bar; icilin: black bar).

Row | SMILES | effect on food intake (DIO male mice [1]) | effect on glucose tolerance and area under the curve (AUC) (DIO male mice [2]; DMPP 1 mg/kg, 5 mg/kg or 10 mg/ml) | effect on body weight (DIO male mice [3]; 14 days, DMPP 1 mg/kg, 5 mg/kg or 10 mg/ml) | effect on fasting glucose (DIO male mice [4]) | effect on glucose tolerance (DIO male mice [2]; icilin 6 mg/kg) | effect on body weight (DIO male mice [3]; 16 days, icilin 0.6 mg/kg or 6 mg/kg) | effect on energy expenditure (DIO male mice [5])
1 | C[N+]1(C)CCN(c2ccccc2)CC1 [DMPP, dimethylphenylpiperazinium] | reduction in food intake | dose-dependent improvement in glucose tolerance | dose-dependent weight lowering effect | – | – | – | –
2 | O=C1NC(c2cccc([N+](=O)[O-])c2)=CCN1c1ccccc1O [icilin, 3-(2-hydroxyphenyl)-6-(3-nitrophenyl)-3,4-dihydropyrimidin-2(1H)-one] | – | – | – | improved fasting glucose levels | does not lead to a short term improvement in glucose tolerance | dose-dependent weight loss | increased energy expenditure
